According to article PMC9719863 (Molecular Metabolism, 2022):
Where two headings read alike, the source gives them in different places. *1 amine or outer side, *2 acyl side, *3 side chain or, on linkers, in order; H or OH if unused. Where a SMILES comes first, the peptide text is derived from it. Side-chain parts run from the residue outwards. [ ]: non-standard residue; d: D form. The star is where a group is joined. γGlu = O=C(O)[C@H](CCC(=O)[*:2])N[*:1]; Palmitoyl = CCCCCCCCCCCCCCCC(=O)*; PhLac = O=C(O)[C@@H](O)Cc1ccccc1

Columns and labels:
hGIPR [1] = biological target: T1, hGIPR (Homo sapiens, UniProt P48546); test: cAMP CRE-luciferase assay in BHK cells expressing GIPR; format: cell-based; conditions: agonist mode, without native ligand
T1 sequence (P48546 22-466): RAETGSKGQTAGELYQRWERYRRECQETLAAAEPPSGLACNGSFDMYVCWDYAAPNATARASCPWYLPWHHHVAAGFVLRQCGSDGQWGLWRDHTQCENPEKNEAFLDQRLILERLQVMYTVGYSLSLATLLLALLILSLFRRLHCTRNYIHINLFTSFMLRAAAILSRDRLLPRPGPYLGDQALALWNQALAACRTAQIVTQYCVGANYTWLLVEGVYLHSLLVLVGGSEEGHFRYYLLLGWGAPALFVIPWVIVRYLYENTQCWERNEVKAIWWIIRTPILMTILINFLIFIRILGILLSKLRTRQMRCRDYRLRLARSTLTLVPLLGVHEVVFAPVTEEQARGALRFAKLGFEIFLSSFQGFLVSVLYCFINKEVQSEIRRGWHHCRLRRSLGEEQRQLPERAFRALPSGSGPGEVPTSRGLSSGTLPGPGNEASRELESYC

mGIPR [2] = biological target: T2, mGIPR (Mus musculus, UniProt Q0P543); test: as above; format: cell-based; conditions: for Agonism at the mGIPR (cAMP production by peptide alone): agonist mode, without native ligand
T2 sequence (Q0P543 19-460): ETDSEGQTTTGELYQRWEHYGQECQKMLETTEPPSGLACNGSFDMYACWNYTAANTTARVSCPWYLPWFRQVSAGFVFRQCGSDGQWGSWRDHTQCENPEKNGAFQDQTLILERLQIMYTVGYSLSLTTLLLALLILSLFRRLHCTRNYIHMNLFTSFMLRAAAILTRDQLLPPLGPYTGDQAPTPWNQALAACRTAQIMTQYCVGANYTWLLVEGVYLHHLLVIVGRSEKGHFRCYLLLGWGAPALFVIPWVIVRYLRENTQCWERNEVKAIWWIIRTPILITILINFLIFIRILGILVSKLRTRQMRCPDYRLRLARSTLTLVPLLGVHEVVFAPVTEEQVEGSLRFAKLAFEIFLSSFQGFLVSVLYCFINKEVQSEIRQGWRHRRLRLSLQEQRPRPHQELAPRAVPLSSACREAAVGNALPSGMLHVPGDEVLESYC

mGIPR [3] = biological target: T2, mGIPR; format: binding
hGIPR [4] = biological target: T1, hGIPR; format: binding

Q: Which “Agonism at the hGIPR (cAMP production by peptide alone)” value (shortened to “Agonism at the hGIPR”) (hGIPR [1]) does the source give for `CC[C@H](C)[C@H](NC(=O)[C@H](CO)NC(=O)[C@H](Cc1ccc(O)cc1)NC(=O)[C@H](CC(=O)O)NC(=O)[C@H](CO)NC(=O)[C@@H](NC(=O)[C@H](Cc1ccccc1)NC(=O)[C@@H](NC(=O)CNC(=O)[C@@H](N)CCC(=O)O)[C@@H](C)O)[C@@H](C)CC)C(=O)N[C@@H](C)C(=O)N[C@@H](CCSC)C(=O)N[C@@H](CC(=O)O)C(=O)N[C@@H](CCCCN)C(=O)N[C@H](C(=O)N[C@@H](Cc1c[nH]cn1)C(=O)N[C@@H](CCC(N)=O)C(=O)N[C@@H](CCC(N)=O)C(=O)N[C@@H](CC(=O)O)C(=O)N[C@@H](Cc1ccccc1)C(=O)N[C@H](C(=O)N[C@@H](CC(N)=O)C(=O)N[C@@H](Cc1c[nH]c2ccccc12)C(=O)N[C@@H](CC(C)C)C(=O)N[C@@H](CC(C)C)C(=O)N[C@@H](C)C(=O)N[C@@H](CCC(N)=O)C(=O)N[C@@H](CCCCN)C(N)=O)C(C)C)[C@@H](C)CC` [Peptide 1, hGIP(3–30), reference compound] here?
A: partial agonism

Q: And the IC50 (mGIPR [2])?
A: > 6000 nM

Q: And the “Agonism at the mGIPR (cAMP production by peptide alone)” value (“Agonism at the mGIPR” below) (mGIPR [2])?
A: no significant agonism

Q: What about the IC50 (mGIPR [3]) of the same compound?
A: 35.1 ± 16.9 nM

Q: `CCCCCCCCCCCCCCCC(=O)N[C@@H](CCC(=O)NCCCC[C@H](NC(=O)[C@H](Cc1ccc(O)cc1)NC(=O)[C@H](CC(=O)O)NC(=O)[C@H](CO)NC(=O)[C@@H](NC(=O)[C@@H](O)Cc1ccccc1)[C@@H](C)CC)C(=O)N[C@H](C(=O)N[C@@H](C)C(=O)N[C@@H](CC(C)C)C(=O)N[C@@H](CC(=O)O)C(=O)N[C@@H](CCCCN)C(=O)N[C@H](C(=O)N[C@@H](CCCNC(=N)N)C(=O)N[C@@H](CCC(N)=O)C(=O)N[C@@H](CCC(N)=O)C(=O)N[C@@H](CCC(=O)O)C(=O)N[C@@H](Cc1ccccc1)C(=O)N[C@H](C(=O)N[C@@H](CC(N)=O)C(=O)N[C@@H](Cc1c[nH]c2ccccc12)C(=O)N[C@@H](CC(C)C)C(=O)N[C@@H](CC(C)C)C(=O)N[C@@H](C)C(=O)N[C@@H](CCC(N)=O)C(=O)N[C@@H](CCCCN)C(=O)NCC(=O)O)C(C)C)[C@@H](C)CC)[C@@H](C)CC)C(=O)O` [Peptide 8, [Pla6, L14, R18, E21] hGIP(6–31)-K11 (γE-C16)] (H-[PhLac]ISDYK([γGlu-Palmitoyl])IALDKIRQQEFVNWLLAQKG-OH) was tested. Which “Agonism at the hGIPR” value (hGIPR [1]) did it give?
A: negligible cAMP production as agonists

Q: And the “Agonism at the mGIPR” value (mGIPR [2])?
A: negligible cAMP production as agonists

Q: And the IC50 (hGIPR [4])?
A: 0.5 ± 0.08 nM

Q: And the IC50 (mGIPR [3])?
A: 1.55 ± 0.07 nM

Q: `CC[C@H](C)[C@H](NC(=O)[C@H](CO)NC(=O)[C@H](Cc1ccc(O)cc1)NC(=O)[C@H](CC(=O)O)NC(=O)[C@H](CO)NC(=O)[C@@H](NC(=O)[C@@H](O)Cc1ccccc1)[C@@H](C)CC)C(=O)N[C@@H](C)C(=O)N[C@@H](CC(C)C)C(=O)N[C@@H](CC(=O)O)C(=O)N[C@@H](CCCCN)C(=O)N[C@H](C(=O)N[C@@H](CCCNC(=N)N)C(=O)N[C@@H](CCC(N)=O)C(=O)N[C@@H](CCC(N)=O)C(=O)N[C@@H](CCC(=O)O)C(=O)N[C@@H](Cc1ccccc1)C(=O)N[C@H](C(=O)N[C@@H](CC(N)=O)C(=O)N[C@@H](Cc1c[nH]c2ccccc12)C(=O)N[C@@H](CC(C)C)C(=O)N[C@@H](CC(C)C)C(=O)N[C@@H](C)C(=O)N[C@@H](CCC(N)=O)C(=O)N[C@@H](CCCCN)C(=O)NCC(=O)O)C(C)C)[C@@H](C)CC` [Peptide 5, [Pla6, L14, R18, E21] hGIP(6–31)] (H-[PhLac]ISDYSIALDKIRQQEFVNWLLAQKG-OH) was tested. Which “Agonism at the hGIPR” value (hGIPR [1]) did it give?
A: no significant agonism

Q: What about the “Agonism at the mGIPR” value (mGIPR [2]) of the same compound?
A: no significant agonism

Q: And the IC50 (hGIPR [4])?
A: 2.98 ± 1.68 nM

Q: And the IC50 (mGIPR [3])?
A: 22.7 ± 7.9 nM
